According to PMC6112376, “Comprehensive Analyses and Prioritization of Tox21 10K Chemicals Affecting Mitochondrial Function by in-Depth Mechanistic Studies” (Environmental Health Perspectives, 2018):
Read-outs that look alike come from different tables or passages of the source.

Legend:
[1] = system: HepG2 cells; test: ROS-Glo hydrogen peroxide (ROS) assay; format: cell-based, human; conditions: Homo sapiens, HepG2, 2 h, read-out: ROS (HepG2) EC50
[2] = system: Caenorhabditis elegans strain PE255; test: In vivo C. elegans ATP status assay; conditions: Caenorhabditis elegans, read-out: LEC LUM: lowest effect concentration for luminescence, a measure of nematode ATP content
[3] = system: isolated rat liver mitochondria; test: Oxygen consumption, Clark-type oxygen electrode; format: biochemical
[4] = system: rat primary hepatocytes; test: MMP assay in rat primary hepatocytes; conditions: Rattus norvegicus, Hepatocyte
[5] = system: mitochondrial respiratory chain complex III; format: biochemical, rat
[6] = target: T1, mitochondrial respiratory chain complex II (Rattus norvegicus, UniProt P21913+Q641Z9+Q6PCT8+Q920L2); test: Respiratory chain complex II activity; format: biochemical; conditions: tested up to 100μM
T1 construct: Submitochondrial particles were prepared by subjecting the intact rat mitochondria, isolated as described above, to three successive freeze–thaw cycles; from tissue; host or cells: rat liver mitochondria (submitochondrial particles)
T1 sequence (Q920L2 35-656): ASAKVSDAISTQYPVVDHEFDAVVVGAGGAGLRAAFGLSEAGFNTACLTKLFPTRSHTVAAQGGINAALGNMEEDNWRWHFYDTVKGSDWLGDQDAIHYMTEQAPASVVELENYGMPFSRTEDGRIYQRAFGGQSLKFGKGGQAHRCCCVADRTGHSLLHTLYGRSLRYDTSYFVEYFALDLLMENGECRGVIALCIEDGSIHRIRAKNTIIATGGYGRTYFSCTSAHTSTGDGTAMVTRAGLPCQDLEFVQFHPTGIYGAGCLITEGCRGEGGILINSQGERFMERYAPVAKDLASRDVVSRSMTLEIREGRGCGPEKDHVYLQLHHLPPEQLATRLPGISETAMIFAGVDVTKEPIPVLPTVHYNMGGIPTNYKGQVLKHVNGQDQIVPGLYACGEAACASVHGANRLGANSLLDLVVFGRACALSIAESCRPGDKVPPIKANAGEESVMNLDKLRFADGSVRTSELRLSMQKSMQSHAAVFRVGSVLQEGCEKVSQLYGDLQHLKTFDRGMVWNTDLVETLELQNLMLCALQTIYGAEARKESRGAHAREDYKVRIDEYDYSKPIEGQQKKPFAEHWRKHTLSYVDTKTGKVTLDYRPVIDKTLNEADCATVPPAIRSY
T1 sequence (P21913 31-282): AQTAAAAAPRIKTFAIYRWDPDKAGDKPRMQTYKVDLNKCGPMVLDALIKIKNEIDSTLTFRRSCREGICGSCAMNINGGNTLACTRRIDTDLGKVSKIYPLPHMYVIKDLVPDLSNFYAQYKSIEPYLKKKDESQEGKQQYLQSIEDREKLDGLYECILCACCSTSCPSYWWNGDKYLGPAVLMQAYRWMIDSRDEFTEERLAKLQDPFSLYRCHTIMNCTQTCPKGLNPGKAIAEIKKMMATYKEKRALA
T1 sequence (Q641Z9 1-169): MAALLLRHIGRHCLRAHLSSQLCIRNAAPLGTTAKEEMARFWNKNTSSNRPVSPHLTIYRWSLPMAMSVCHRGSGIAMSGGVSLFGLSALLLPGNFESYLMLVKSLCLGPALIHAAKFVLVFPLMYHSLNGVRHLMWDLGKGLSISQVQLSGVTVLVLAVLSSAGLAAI
T1 sequence (Q6PCT8 57-159): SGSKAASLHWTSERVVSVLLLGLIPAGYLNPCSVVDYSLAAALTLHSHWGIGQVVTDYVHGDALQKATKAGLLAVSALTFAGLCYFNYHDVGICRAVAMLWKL

[7] = system: mitochondrial respiratory chain complex V; format: biochemical, rat
[8] = system: hNSC; test: MMP assay in human neural stem cells (hNSC); format: cell-based; conditions: Homo sapiens, Neural stem cell, 1 h, read-out: hNSC IC50 (MMP)
[9] = system: HepG2 cells; conditions: cited from earlier work
[10] = system: Caenorhabditis elegans (Bristol N2); conditions: Bristol N2 (wild type), Caenorhabditis elegans, in vivo
[11] = system: mitochondrial respiratory chain complex IV; format: biochemical, rat
[12] = system: mitochondrial respiratory chain complex I; format: biochemical, rat
[13] = system: HeLa cells expressing YFP-Parkin; test: Parkin translocation assay; format: cell-based, human
[14] = system: Caenorhabditis elegans (Bristol N2); test: C. elegans larval development and growth assay
[15] = system: rat primary hepatocytes
[16] = system: HepG2 cells; test: Intracellular ATP content (cell viability) assay; format: cell-based, human; conditions: Homo sapiens, HepG2, 40 h
[17] = system: HepG2 cells; test: cells; conditions: Homo sapiens
[18] = system: Nrf2/ARE (ARE-bla HepG2 cells); test: ARE β-lactamase reporter gene assay; format: cell-based, human; conditions: Homo sapiens, HepG2, 16 h, read-out: ARE (HepG2) EC50

C=C(C)[C@H]1Cc2c(ccc3c2O[C@@H]2COc4cc(OC)c(OC)cc4[C@@H]2C3=O)O1 [Rotenone, reference compound]
EC50 [1]: 4.04 µM
minimal effective concentration [2]: 0.5 µM
Potential Mechanism [3]: Inhibitor (at complex I)
effect on mitochondrial respiration (in words) [3]: only inhibited glutamate/malate-driven respiration, but not succinate-driven respiration
I-ADP, % of control (O2 consumption rate) ([3]; 0.00128 µM): 91 (44.7) % of control
I-sub, % of control (O2 consumption rate) ([3]; 0.00128 µM): 113 (15.6) % of control
II-ADP, % of control (O2 consumption rate) ([3]; 0.00128 µM): 98 (87.5) % of control
II-sub, % of control (O2 consumption rate) ([3]; 0.00128 µM): 94 (25.3) % of control
I-ADP, % of control (O2 consumption rate) ([3]; 0.0064 µM): 81 (40.2) % of control
I-sub, % of control (O2 consumption rate) ([3]; 0.0064 µM): 114 (15.8) % of control
II-ADP, % of control (O2 consumption rate) ([3]; 0.0064 µM): 83 (74.3) % of control
II-sub, % of control (O2 consumption rate) ([3]; 0.0064 µM): 56 (15.2) % of control
I-ADP, % of control (O2 consumption rate) ([3]; 0.032 µM): 27 (13.1) % of control
I-sub, % of control (O2 consumption rate) ([3]; 0.032 µM): 86 (11.9) % of control
II-ADP, % of control (O2 consumption rate) ([3]; 0.032 µM): 97 (86.1) % of control
II-sub, % of control (O2 consumption rate) ([3]; 0.032 µM): 79 (21.4) % of control
I-ADP, % of control (O2 consumption rate) ([3]; 0.16 µM): 20 (9.9) % of control
I-sub, % of control (O2 consumption rate) ([3]; 0.16 µM): 71 (9.9) % of control
II-ADP, % of control (O2 consumption rate) ([3]; 0.16 µM): 107 (95.0) % of control
II-sub, % of control (O2 consumption rate) ([3]; 0.16 µM): 97 (26.3) % of control
I-ADP, % of control (O2 consumption rate) ([3]; 0.8 µM): 18 (8.9) % of control
I-sub, % of control (O2 consumption rate) ([3]; 0.8 µM): 64 (8.9) % of control
II-ADP, % of control (O2 consumption rate) ([3]; 0.8 µM): 99 (88.3) % of control
II-sub, % of control (O2 consumption rate) ([3]; 0.8 µM): 99 (26.9) % of control
I-ADP, % of control (O2 consumption rate) ([3]; 4 µM): 19 (9.5) % of control
I-sub, % of control (O2 consumption rate) ([3]; 4 µM): 64 (8.8) % of control
II-ADP, % of control (O2 consumption rate) ([3]; 4 µM): 97 (86.3) % of control
II-sub, % of control (O2 consumption rate) ([3]; 4 µM): 97 (26.2) % of control
I-ADP, % of control (O2 consumption rate) ([3]; 20 µM): 18 (8.8) % of control
I-sub, % of control (O2 consumption rate) ([3]; 20 µM): 62 (8.6) % of control
II-ADP, % of control (O2 consumption rate) ([3]; 20 µM): 95 (84.3) % of control
II-sub, % of control (O2 consumption rate) ([3]; 20 µM): 107 (28.9) % of control
IC50 ([4]; 1 h, read-out: Rat hepatocytes IC50 (MMP)): 0.36 µM
IC50 ([4]; read-out: MMP assays IC50 (µM) Rat Hepatocytes): 0.2 ± 0.3 µM
Complex III % inhibition (activity call) [5]: Inactive
Complex II % inhibition (activity call) [6]: Inactive
Complex V % inhibition (activity call) [7]: Inactive
IC50 [8]: 23.7 µM
MMP assays efficacy (%) qHTS-HepG2 [9]: -104±7%
IC50 ([9]; read-out: MMP assays IC50 (µM), qHTS-HepG2): 17.4 ± 1.94 µM
inhibitory effect at (concentration) on larval growth in the C. elegans assay [10]: 0.05 µM
Complex IV % inhibition (activity call) [11]: Inactive
inhibitory effect on Complex I at (concentration) [12]: 0.032 µM
Complex I % inhibition ([12]; at 0.032μM): 37.5±3.32 at 0.032μM %
Parkin recruitment [13]: Inactive
Parkin translocation into mitochondria (in words) ([13]; 3 h): did not induce Parkin translocation
larval growth effect at 0.5μM ([14]; 0.5 µM): severe larval growth arrest
minimal effective concentration ([14]; Caenorhabditis elegans, read-out: LEC EXT: lowest effect concentration for extinction, a measure of nematode size): 0.05 µM
MMP assays efficacy (%) Rat Hepatocytes [15]: -86+39%
Rat hepatocytes (efficacy) (MMP) [15]: 0.36±0.22 ( −85.9±10.7 ) %
IC50 ([16]; read-out: ATP (HepG2, galactose) IC50): 1.63 µM
IC50 ([16]; read-out: ATP (HepG2, glucose) IC50): 1.05 µM
IC50 ([17]; HepG2, 1 h, read-out: HepG2 IC50 Galactose (MMP)): 31.8 µM
IC50 ([17]; HepG2, 1 h, read-out: HepG2 IC50 Glucose (MMP)): 44.7 µM
IC50 ([17]; HepG2, read-out: MMP assays IC50 (µM) HepG2): 0.0123 µM
Emax ([17]; HepG2, read-out: MMP assays efficacy (%) HepG2): 95%
EC50 [18]: 0.05 ± 0.02 µM
